Measured values published in patent US20210121486A1, “ANIMAL THERAPEUTIC AND FEED COMPOSITIONS AND METHODS OF USE” (Cadena Bio, Inc., priority 2015, published 2021).

System: common gut microbes
Assay: Gut microbe growth on carbohydrate food sources (96-well carbohydrate array, A600 growth curves), whole panel
Type: cell-based
Conditions: all of the gut microflora cultures, sole carbohydrate source, anaerobic, 37° C.
Description: The ability of common gut microbes to grow on carbohydrate food sources was measured using a custom carbohydrate array constructed in a 96-well format. See for example, Martens E C, et al, “Recognition and Degradation of Plant Cell Wall Polysaccharides by Two Human Gut Symbionts,” PLOS Biology, volume 9, issue 12, page e1001221 (2011) and Martens E C, Chiang H C, Gordon J I, “Mucosal glycan foraging enhances fitness and transmission of a saccharolytic human gut bacterial symbiont.” Cell Host Microbe 4: 447-457 (2008). Each well of a flat bottom 96-well plate was loaded with 100 µL of each sterilized carbohydrate stock at 2× concentration.
Each substrate was represented in […] on each assay plate in two non-adjacent wells. Two carbohydrate-free water wells were included as negative controls. […] Plates were then loaded into an automated plate handling device coupled to an absorbance reader. Absorbance at 600 nm (A600) was measured for each well at 10-15 min intervals. […]

CC(=O)N[C@H]1C(O)O[C@H](CO)[C@@H](O)[C@@H]1O (stereo partly shown) [N-acetylglucosamine]
growth of the gut microflora cultures on the carbohydrate: grew well
